Assay results published in ChEMBL document CHEMBL3885861, “Open TG-GATES”.

Species on record: Rattus norvegicus
Assay: Open TG-GATES - Regimen: Single
Assay type: toxicity, organism-based, Sprague-Dawley
Set-up: regimen Single, gender Male, age 6 weeks
Conditions: in vivo, po, 30 mg/kg, route gavage, dose level Low; for APTT / Bas / Eos / Fbg / Hb / Ht / Lym / MCH / MCHC / MCV / Mono / Neu / PT / Plat / RBC / Ret / WBC: tissue Blood; for KIDNEY_L / KIDNEY_R / KIDNEY_TOTAL: tissue Kidney; for LIVER: tissue Liver; for A/G / ALP / ALT / AST / BUN / CRE / Ca / Cl / DBIL / GLC / IP / K / LDH / Na / PL / RALB / TBIL / TC / TG / TP / gamma-GTP: tissue Plasma

**Q.** Which results are given for CCc1oc2ccccc2c1C(=O)c1cc(I)c(O)c(I)c1 [BENZIODARONE]?
**A.** TERMINAL_BW (3 h): 212.2 g; APTT (3 h): 16.6 s; Bas (3 h): 0%; Eos (3 h): 1%; Fbg (3 h): 202.4 mg/dL; Hb (3 h): 14 g/dL; Ht (3 h): 41.5%; Lym (3 h): 74.4%; MCH (3 h): 21.7 pg; MCHC (3 h): 33.8%; MCV (3 h): 64.3 fL; Mono (3 h): 10%; Neu (3 h): 14.8%; PT (3 h): 12 s; Plat (3 h): 117.6 x10_4/uL; RBC (3 h): 645.8 x10_4/ul; Ret (3 h): 8.1%; WBC (3 h): 97.8 x10_2/uL; KIDNEY_L (3 h): 1 g; KIDNEY_R (3 h): 1 g; KIDNEY_TOTAL (3 h): 2 g; LIVER (3 h): 10 g; A/G (3 h): 2.1; ALP (3 h): 939.2 IU/L; ALT (3 h): 33.8 IU/L; AST (3 h): 66.6 IU/L; BUN (3 h): 11 mg/dL; CRE (3 h): 0.5 mg/dL; Ca (3 h): 10.6 mg/dL; Cl (3 h): 103.4 meq/L; DBIL (3 h): 0 mg/dL; GLC (3 h): 192.8 mg/dL; IP (3 h): 9.7 mg/dL; K (3 h): 4.4 meq/L; LDH (3 h): 109.6 IU/L; Na (3 h): 141 meq/L; PL (3 h): 131.2 mg/dL; RALB (3 h): 3.7 g/dL; TBIL (3 h): 0.4 mg/dL; TC (3 h): 73 mg/dL; TG (3 h): 56.8 mg/dL; TP (3 h): 5.4 g/dL; gamma-GTP (3 h): 2 IU/L; TERMINAL_BW (6 h): 213.4 g; APTT (6 h): 16.4 s; Bas (6 h): 0%; Eos (6 h): 1%; Fbg (6 h): 218.2 mg/dL; Hb (6 h): 13.7 g/dL; Ht (6 h): 41%; Lym (6 h): 82%; MCH (6 h): 21.9 pg; MCHC (6 h): 33.4%; MCV (6 h): 65.6 fL; Mono (6 h): 7.8%; Neu (6 h): 9.8%; PT (6 h): 12 s; Plat (6 h): 108.5 x10_4/uL; RBC (6 h): 625.4 x10_4/ul; Ret (6 h): 10.8%; WBC (6 h): 102.6 x10_2/uL; KIDNEY_L (6 h): 1 g; KIDNEY_R (6 h): 1 g; KIDNEY_TOTAL (6 h): 1.9 g; LIVER (6 h): 9.8 g; A/G (6 h): 2.2; ALP (6 h): 728.8 IU/L; ALT (6 h): 31 IU/L; AST (6 h): 65.6 IU/L; BUN (6 h): 11.8 mg/dL; CRE (6 h): 0.5 mg/dL; Ca (6 h): 10.7 mg/dL; Cl (6 h): 105 meq/L; DBIL (6 h): 0.03 mg/dL; GLC (6 h): 183.4 mg/dL; IP (6 h): 9.8 mg/dL; K (6 h): 4.6 meq/L; LDH (6 h): 105.2 IU/L; Na (6 h): 141.6 meq/L; PL (6 h): 130.6 mg/dL; RALB (6 h): 3.7 g/dL; TBIL (6 h): 0.3 mg/dL; TC (6 h): 76.6 mg/dL; TG (6 h): 55.2 mg/dL; TP (6 h): 5.4 g/dL; gamma-GTP (6 h): 1.8 IU/L; TERMINAL_BW (9 h): 210.3 g; APTT (9 h): 17.9 s; Bas (9 h): 0%; Eos (9 h): 1%; Fbg (9 h): 203.2 mg/dL; Hb (9 h): 13.5 g/dL; Ht (9 h): 40.3%; Lym (9 h): 76.8%; MCH (9 h): 21.7 pg; MCHC (9 h): 33.6%; MCV (9 h): 64.5 fL; Mono (9 h): 8%; Neu (9 h): 14.6%; PT (9 h): 12 s; Plat (9 h): 110.8 x10_4/uL; RBC (9 h): 624.8 x10_4/ul; Ret (9 h): 8.2%; WBC (9 h): 78 x10_2/uL; KIDNEY_L (9 h): 0.9 g; KIDNEY_R (9 h): 1 g; KIDNEY_TOTAL (9 h): 1.9 g; LIVER (9 h): 9 g; A/G (9 h): 2.2; ALP (9 h): 748.4 IU/L; ALT (9 h): 28.8 IU/L; AST (9 h): 58.6 IU/L; BUN (9 h): 11.4 mg/dL; CRE (9 h): 0.4 mg/dL; Ca (9 h): 10.4 mg/dL; Cl (9 h): 105.4 meq/L; DBIL (9 h): 0.086 mg/dL; GLC (9 h): 198 mg/dL; IP (9 h): 10.4 mg/dL; K (9 h): 4.5 meq/L; LDH (9 h): 88.4 IU/L; Na (9 h): 142.8 meq/L; PL (9 h): 129.2 mg/dL; RALB (9 h): 3.7 g/dL; TBIL (9 h): 0.3 mg/dL; TC (9 h): 67.6 mg/dL; TG (9 h): 48.6 mg/dL; TP (9 h): 5.5 g/dL; gamma-GTP (9 h): 0.8 IU/L; TERMINAL_BW (24 h): 226.7 g; APTT (24 h): 17.3 s; Bas (24 h): 0%; Eos (24 h): 1%; Fbg (24 h): 206.6 mg/dL; Hb (24 h): 13.4 g/dL; Ht (24 h): 39.2%; Lym (24 h): 76.4%; MCH (24 h): 22.1 pg; MCHC (24 h): 34.2%; MCV (24 h): 64.8 fL; Mono (24 h): 7.4%; Neu (24 h): 15%; PT (24 h): 11.9 s; Plat (24 h): 117.8 x10_4/uL; RBC (24 h): 605 x10_4/ul; Ret (24 h): 8.1%; WBC (24 h): 94 x10_2/uL; KIDNEY_L (24 h): 1 g; KIDNEY_R (24 h): 1 g; KIDNEY_TOTAL (24 h): 2 g; LIVER (24 h): 11.1 g; A/G (24 h): 2.1; ALP (24 h): 882.8 IU/L; ALT (24 h): 34.6 IU/L; AST (24 h): 70.8 IU/L; BUN (24 h): 17.4 mg/dL; CRE (24 h): 0.6 mg/dL; Ca (24 h): 10.6 mg/dL; Cl (24 h): 104.6 meq/L; DBIL (24 h): 0.006 mg/dL; GLC (24 h): 197.2 mg/dL; IP (24 h): 7.4 mg/dL; K (24 h): 4.7 meq/L; LDH (24 h): 95.8 IU/L; Na (24 h): 141 meq/L; PL (24 h): 138.2 mg/dL; RALB (24 h): 3.8 g/dL; TBIL (24 h): 0.3 mg/dL; TC (24 h): 73.2 mg/dL; TG (24 h): 81.6 mg/dL; TP (24 h): 5.6 g/dL; gamma-GTP (24 h): 1 IU/L
